Read-outs that look alike come from different tables or passages of the source.
Molecular target: T1, human GPR119 (Homo sapiens, UniProt Q8TDV5)
T1 sequence (Q8TDV5 1-335): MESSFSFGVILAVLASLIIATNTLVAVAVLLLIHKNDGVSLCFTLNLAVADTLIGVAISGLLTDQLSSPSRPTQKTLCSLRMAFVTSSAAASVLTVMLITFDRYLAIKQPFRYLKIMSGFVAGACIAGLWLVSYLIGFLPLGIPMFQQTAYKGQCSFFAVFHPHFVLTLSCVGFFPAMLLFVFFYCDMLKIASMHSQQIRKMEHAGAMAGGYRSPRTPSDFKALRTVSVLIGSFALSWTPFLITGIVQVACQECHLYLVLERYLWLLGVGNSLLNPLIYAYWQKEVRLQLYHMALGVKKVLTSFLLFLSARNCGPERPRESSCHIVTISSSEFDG
Assay: Intracellular cAMP increase in human GPR119 introduced cells (Pharmacological Experiments 1 and 2)
Type: cell-based
Settings: for GPR119 agonist effect: result in words, refers to Tables 12 and 13
Excerpt: The GPR119 agonist effect is studied by measuring the effect of an analyte on increase of intracellular amount of cAMP in human GPR119 introduced cells. The testing method is described below.
Human GPR119 gene (NM 178471) is purchased from ATCC (ATCC No. 10807349), and is amplyfied according to PCR to form BamHI site at 5′ side and Apa I site at 3′ side. The forward side primer is […] (sequence No. 1), and the reverse side primer is […] (sequence No. 2). The PCR conditions are described below.
(§1) The double-stranded DNA is thermally denatured using a DNA polymerase (KOD-Plus-Ver. 2; TOYOBO #KOD-211) at 98° C. for 10 seconds in one cycle. The denatured single-stranded DNA is annealed with the primers at 55° C. for 30 seconds. The DNA is subjected to an extension reaction at 68° C. for 1 minute and 15 seconds. The above-mentioned steps are repeated in 35 cycles. The PCR product is inserted into pcDNA5/FRT/TO (Invitrogen #V6520-20) plasmid. Flp-in T-Rex-293 cells (Invitorogen #R78007) are transfected with the obtained plasmid. The method of transfection is conducted in accordance with the protocol of the product.
The stable cell line expressing human GPR119 prepared in the above-mentioned method is plated on a 96-well plate at the concentration of 2,500 cells/well using Dulbecco's Modified Eagle Medium (DMEM) containing 10% fetal bovine serum (FBS). Twenty-four hours after plating, tetracyclin (Invitrogen #Q10019) is added at the final concentration of 20 ng/mL to induce hGPR119 gene expression. Twenty-four hours after, the medium is removed, and the cells are stimulated with an assay buffer (0.5 mM IBMX PBS(−)) containing the test compound at 37° C. for 30 minutes. The amount of the intracellular cAMP is measured using a commercially available kit (HitHunter™ cAMP XS+ Assay: GE Healthcare #90007503) and a reader (FLUOstar Optima: BMG LABTECH). The test compound is dissolved in 100% DMSO, and added at the final concentration of 1%.
Human GPR119 gene (NM 178471) was purchased from ATCC (ATCC No. 10807349), and is amplyfied according to PCR to form BamHI site at 5′ side and Apa I site at 3′ side. The primers were […] (sequence No. 1) and […] (sequence No. 2). The PCR conditions are described below.
as §1, with “was” for “is”, “were” for “are”
The stable cell line expressing human GPR119 prepared in the above-mentioned method was plated on a 96-well plate at the concentration of 2,500 cells/well using Dulbecco's Modified Eagle Medium (DMEM) containing 10% fetal bovine serum (FBS). Twenty-four hours after plating, tetracyclin (Invitrogen #Q10019) was added at the final concentration of 20 ng/mL to induce hGPR119 gene expression. Twenty-four hours after, the medium was removed, and the cells were stimulated with an assay buffer (0.5 mM IBMX PBS (−)) containing the test compound at 37° C. for 30 minutes. The amount of the intracellular cAMP was measured using a commercially available kit (HitHunter™ cAMP XS+ Assay: GE Healthcare #90007503) and a reader (FLUOstar Optima: BMG LABTECH). The test compound was dissolved in 100% DMSO, and added at the final concentration of 1%.
The examination was performed by the method similar to Example 61 Pharmacological experiment 1-(1), 1-(2).

[1] = Table 12, Flp-in T-Rex-293 cells stably expressing hGPR119, intracellular cAMP, 37° C. for 30 minutes, read-out: EC50

Row | EC50 [1] | SMILES | EC50 | GPR119 agonist effect
1 | 313 nM | CC(C)(C)OC(=O)N1CCC(c2cnc(COc3ccc(S(C)(=O)=O)cc3)nc2)CC1 [Example 1, tert-Butyl 4-[2-(4-methanesulfonylphenoxymethyl)pyrimidin-5-yl]piperidine-1-carboxylate] | – | –
2 | – | CC(C)(C)OC(=O)N1CC=C(c2cnc(COc3ccc(S(C)(=O)=O)cc3)cn2)CC1 [Example 2, tert-Butyl 4-[5-(4-methanesulfonylphenoxymethyl)pyrazin-2-yl]-3,6-dihydro-2H-pyridine-1-carboxylate] | 76.5 nM | –
3 | – | CC(C)(C)OC(=O)N1CCC(c2cnc(COc3ccc(S(C)(=O)=O)cc3)cn2)CC1 [Example 3, tert-Butyl 4-[5-(4-methanesulfonylphenoxymethyl)pyrazin-2-yl]piperidine-1-carboxylate] | 74.6 nM | –
4 | – | CC(C)(C)OC(=O)N1CCC(c2cnc(Cn3ccc4cc(S(C)(=O)=O)ccc43)nc2)CC1 [Example 4, tert-Butyl 4-[2-(5-methanesulfonylindol-1-ylmethyl)pyrimidin-5-yl]piperidine-1-carboxylate] | 62.4 nM | –
5 | – | CC(C)(C)OC(=O)N1C2C=C(c3cnc(COc4ccc(S(C)(=O)=O)cc4)cn3)CC1CC2 (stereo not drawn) [Example 10, tert-Butyl 3-[5-(4-methanesulfonylphenoxymethyl)pyrazin-2-yl]-8-azabicyclo[3.2.1]oct-2-ene-8-carboxylate] | 99.8 nM | –
6 | – | CC(C)(C)OC(=O)N1C2CCC1CC(c1cnc(COc3ccc(S(C)(=O)=O)cc3)cn1)C2 (stereo not drawn) [Example 11, tert-Butyl 3-[5-(4-methanesulfonylphenoxymethyl)pyrazin-2-yl]-8-azabicyclo[3.2.1]octane-8-carboxylate] | 67.3 nM | –
7 | – | CC(C)(C)OC(=O)N1CC=C(c2cnc(COc3ccc(-n4cnnn4)cc3F)cn2)CC1 [Example 12, tert-Butyl 4-[5-[2-fluoro-4-(tetrazol-1-yl)phenoxymethyl]pyrazin-2-yl]-3,6-dihydro-2H-pyridine-1-carboxylate] | 56.4 nM | –
8 | 126 nM | CC1CN(C(=O)OC(C)(C)C)CC=C1c1cnc(Cn2ccc3cc(S(C)(=O)=O)cnc32)cn1 (stereo not drawn) [Example 15, tert-Butyl 4-[5-(5-methanesulfonyl-1H-pyrrolo[2,3-b]pyridin-1-ylmethyl)pyrazin-2-yl]-3-methyl-3,6-dihydro-2H-pyridine-1-carboxylate] | – | –
9 | 124 nM | CC1CN(C(=O)OC(C)(C)C)CC=C1c1cnc(COc2ccc(-n3cncn3)cc2)cn1 (stereo not drawn) [Example 17, tert-Butyl 3-methyl-4-[5-[4-(1,2,4-triazol-1-yl)phenoxymethyl]pyrazin-2-yl]-3,6-dihydro-2H-pyridine-1-carboxylate] | – | –
10 | – | CC1CN(C(=O)OC(C)(C)C)CC=C1c1cnc(Cn2ccc3c(F)c(S(C)(=O)=O)c(F)cc32)cn1 (stereo not drawn) [Example 19, tert-Butyl 4-[5-(4,6-difluoro-5-methanesulfonylindol-1-ylmethyl)pyrazin-2-yl]-3-methyl-3,6-dihydro-2H-pyridine-1-carboxylate] | 82.8 nM | –
11 | – | CC(C)(C)OC(=O)N1CC=C(c2cnc(Cn3ccc4cc(S(C)(=O)=O)c(F)c(F)c43)cn2)CC1 [Example 20, tert-Butyl 4-[5-(6,7-difluoro-5-methanesulfonylindol-1-ylmethyl)pyrazin-2-yl]-3,6-dihydro-2H-pyridine-1-carboxylate] | 21.9 nM | excellent GPR119 agonist effect
12 | – | CC1CN(C(=O)OC(C)(C)C)CC=C1c1cnc(Cn2ccc3cc(S(C)(=O)=O)c(F)c(F)c32)cn1 (stereo not drawn) [Example 21, tert-Butyl 4-[5-(6,7-difluoro-5-methanesulfonylindol-1-ylmethyl)pyrazin-2-yl]-3-methyl-3,6-dihydro-2H-pyridine-1-carboxylate] | 21.4 nM | excellent GPR119 agonist effect
13 | 111 nM | CC1CN(C(=O)OC(C)(C)C)CC=C1c1cnc(COc2ccc(S(C)(=O)=O)c(F)c2F)nc1 (stereo not drawn) [Example 24, tert-Butyl 4-[2-(2,3-difluoro-4-methanesulfonylphenoxymethyl)pyrimidin-5-yl]-3-methyl-3,6-dihydro-2H-pyridine-1-carboxylate] | – | –

Source: patent US20190192510A1, “GPR119 AGONIST” (NIPPON CHEMIPHAR CO., LTD., priority 2010, published 2019)
